This is an account of results in PMC4047093, “Structural Insights into SraP-Mediated Staphylococcus aureus Adhesion to Host Cells” (PLoS Pathogens, 2014).

In data set [1] the target is L-lectin module of SraP (Staphylococcus aureus, UniProt Q2FUW1). Briefly: SPR (Biacore […]), steady state, […] Langmuir fit. The note with it: 10 mM HEPES pH 7.5, 150 mM NaCl, 0.005% Tween 20, 25 °C; protein immobilised on CM5 chip; Neu5Ac 0.12-10 mM. It is filed as binding.
Data set [2] concerns the molecule itself. Briefly: SEC; Superdex 75 column, CDHL-1&2 against protein markers of 67, 44, 25, 17 and 13.7 kDa.

L-lectin module of SraP, sequence (Q2FUW1 245-491): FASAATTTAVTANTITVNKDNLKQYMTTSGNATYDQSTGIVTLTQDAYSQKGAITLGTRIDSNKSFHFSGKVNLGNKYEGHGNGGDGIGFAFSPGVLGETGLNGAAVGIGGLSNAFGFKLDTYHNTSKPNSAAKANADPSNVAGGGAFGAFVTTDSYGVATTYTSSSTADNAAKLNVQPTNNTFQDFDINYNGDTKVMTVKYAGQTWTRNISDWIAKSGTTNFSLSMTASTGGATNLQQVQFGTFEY

Regarding `CC(=O)N[C@H]1[C@H]([C@H](O)[C@H](O)CO)OC(O)(C(=O)O)C[C@@H]1O` (some centres unmarked) [N-acetylneuraminic acid], in data set [1], the Kd came to 540 µM.

B1: CDHL-1&2 (tandem cadherin-like modules of SraP, Ala576–Asn751) (domain or fragment)
chain: APTVTVGNQTIEVGKTMNPIVLTTTDNGTGTVTNTVTGLPSGLSYDSATNSIIGTPTKIGQSTVTVVSTDQANNKSTTTFTINVVDTTAPTVTPIGDQSSEVYSPISPIKIATQDNSGNAVTNTVTGLPSGLTFDSTNNTISGTPTNIGTSTISIVSTDASGNKTTTTFKYEVTRN
notes: modules CDHL-1 and CDHL-2, residues Ala576–Asn751; Lacks the two Ca-2 coordinating residues Asp573 and Lys575; also called CDHL-1&2 modules; tandem CDHL modules; source: E. coli BL21, purified (Ni-NTA, Superdex 200 or Superdex 75)
Turning to B1, in data set [2], the “stoichiometry N” value came to 2.
